{"source": "paper PMC7076255", "about": "“A Redox-Sensitive Thiol in Wis1 Modulates the Fission Yeast Mitogen-Activated Protein Kinase Response to H2O2 and Is the Target of a Small Molecule” (Molecular and Cellular Biology, 2020)", "biological_target": "T1, Wis1 (Schizosaccharomyces pombe, UniProt P33886)", "T1 construct": "full length, N-terminal HA3 tag (JJS6, thermal shift) or N-terminal HA and C-terminal His6 tags (JJS7, kinase assay); nmt1 promoter at the chromosomal locus; expressed in S. pombe", "T1 sequence (P33886 1-605)": "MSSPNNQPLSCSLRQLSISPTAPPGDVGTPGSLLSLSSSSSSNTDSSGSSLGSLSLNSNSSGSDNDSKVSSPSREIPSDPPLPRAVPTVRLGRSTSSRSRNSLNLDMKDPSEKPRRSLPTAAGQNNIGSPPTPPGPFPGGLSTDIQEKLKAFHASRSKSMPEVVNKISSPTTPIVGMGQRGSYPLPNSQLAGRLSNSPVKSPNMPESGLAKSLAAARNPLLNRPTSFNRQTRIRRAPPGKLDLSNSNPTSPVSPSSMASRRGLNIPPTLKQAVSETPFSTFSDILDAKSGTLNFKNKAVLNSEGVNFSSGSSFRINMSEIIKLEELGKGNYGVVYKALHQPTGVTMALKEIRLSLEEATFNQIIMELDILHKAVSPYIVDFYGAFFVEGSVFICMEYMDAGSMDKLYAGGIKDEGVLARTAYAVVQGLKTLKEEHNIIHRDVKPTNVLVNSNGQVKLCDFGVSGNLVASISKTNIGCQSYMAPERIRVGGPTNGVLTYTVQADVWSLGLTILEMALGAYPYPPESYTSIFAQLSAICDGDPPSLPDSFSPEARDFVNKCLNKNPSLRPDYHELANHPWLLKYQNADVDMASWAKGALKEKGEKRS", "assay": "thermal shift in crude lysate, Western blot of soluble HA-Wis1", "type": "biochemical", "data": [{"compound": "CCOc1cccc(-c2cc(=O)c3ccccc3o2)c1N", "note": "[INR119]", "values": [{"measurement": "ΔTm at 3 µM", "result": 2, "unit": "°C"}]}]}
